According to article PMC11669383, “Modulating Liposome Surface Charge for Maximized ATP Regeneration in Synthetic Nanovesicles” (ACS Synthetic Biology, 2024):
Blank lines part the entries; values can stand above or below the molecule they belong to.

Tests used:
Assay in all cases: coupled ATP synthesis in proteoliposomes, luciferase luminescence
[1] = biological target: T1, quinone-fumarate oxidoreductase (FRD) (Escherichia coli, UniProt P00363); type: biochemical
T1 construct: gene frdA; coreconstituted in liposomes; with Fumarate reductase iron-sulfur subunit; Fumarate reductase subunit C; Fumarate reductase subunit D

[2] = biological target: T1, quinone-fumarate oxidoreductase (FRD); type: biochemical; conditions: bo3 oxidase and ATP synthase coreconstituted in E. coli polar lipid liposomes, 2 mol % ubiquinone Q8, succinate 1-2000 μM, pH 7.5, read-out is the coupled rate, read-out: apparent KM
[3] = substrate: NC(=O)C1=CN([C@@H]2O[C@H](COP(=O)(O)OP(=O)(O)OC[C@H]3O[C@@H](n4cnc5c(N)ncnc54)[C@H](O)[C@@H]3O)[C@@H](O)[C@H]2O)C=CC1; type: biochemical, Escherichia coli; conditions: NDH-2 added to liposomes with bo3 oxidase, FRD and ATP synthase, 2 mol % ubiquinone Q8, NADH 5-200 μM, pH 7.5, read-out is the coupled rate

T1 sequence (P00363 2-602, other chains not shown): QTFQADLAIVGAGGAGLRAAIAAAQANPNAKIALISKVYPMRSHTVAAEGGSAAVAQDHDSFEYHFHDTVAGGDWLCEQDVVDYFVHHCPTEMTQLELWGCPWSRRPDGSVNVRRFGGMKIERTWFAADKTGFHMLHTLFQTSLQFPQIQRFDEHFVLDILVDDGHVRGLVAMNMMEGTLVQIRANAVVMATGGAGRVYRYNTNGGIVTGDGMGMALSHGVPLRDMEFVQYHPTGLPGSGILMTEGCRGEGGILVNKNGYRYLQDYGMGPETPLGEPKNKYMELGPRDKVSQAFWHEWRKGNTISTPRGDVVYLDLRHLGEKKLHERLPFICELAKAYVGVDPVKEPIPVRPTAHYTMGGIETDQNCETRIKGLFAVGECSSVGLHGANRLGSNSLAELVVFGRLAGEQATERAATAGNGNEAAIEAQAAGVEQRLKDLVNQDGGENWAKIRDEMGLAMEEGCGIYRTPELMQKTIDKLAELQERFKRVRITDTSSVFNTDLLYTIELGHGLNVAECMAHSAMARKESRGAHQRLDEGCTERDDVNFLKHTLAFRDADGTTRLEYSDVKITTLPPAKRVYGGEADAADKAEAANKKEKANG
T1 sequence (P0AC47 2-244 partner, other chains not shown): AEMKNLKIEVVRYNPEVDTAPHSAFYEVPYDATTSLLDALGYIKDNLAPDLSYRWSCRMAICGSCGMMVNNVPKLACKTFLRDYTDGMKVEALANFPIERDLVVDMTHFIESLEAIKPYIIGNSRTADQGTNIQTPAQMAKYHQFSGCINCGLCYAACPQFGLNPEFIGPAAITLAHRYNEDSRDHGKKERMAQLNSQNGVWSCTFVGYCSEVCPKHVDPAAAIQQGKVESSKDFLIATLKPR
T1 sequence (P0A8Q0 whole entry partner, other chains not shown): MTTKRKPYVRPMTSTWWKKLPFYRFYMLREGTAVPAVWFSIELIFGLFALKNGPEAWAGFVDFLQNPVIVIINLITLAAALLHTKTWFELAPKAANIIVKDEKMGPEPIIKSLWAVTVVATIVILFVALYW

Molecule: O=C(O)CC(=O)O [malonate]
- coupled ATP synthesis in proteoliposomes, luciferase luminescence [1]: The reaction was sensitive to the complex II inhibitor malonate.

- Km [2]: 62.2 µM
Molecule: O=C(O)CCC(=O)O [succinate]

B1: NADH dehydrogenase II (NDH-2) (Escherichia coli K-12) (protein)
chain: TTPLKKIVIVGGGAGGLEMATQLGHKLGRKKKAKITLVDRNHSHLWKPLLHEVATGSLDEGVDALSYLAHARNHGFQFQLGSVIDIDREAKTITIAELRDEKGELLVPERKIAYDTLVMALGSTSNDFNTPGVKENCIFLDNPHQARRFHQEMLNLFLKYSANLGANGKVNIAIVGGGATGVELSAELHNAVKQLHSYGYKGLTNEALNVTLVEAGERILPALPPRISAAAHNELTKLGVRVLTQTMVTSADEGGLHTKDGEYIEADLMVWAAGIKAPDFLKDIGGLETNRINQLVVEPTLQTTRDPDIYAIGDCASCPRPEGGFVPPRAQAAHQMATCAMNNILAQMNGKPLKNYQYKDHGSLVSLSNFSTVGSLMGNLTRGSMMIEGRIARFVYISLYRMHQIALHGYFKTGLMMLVGSINRVIRPRLKLH
notes: 45 kDa peripheral membrane protein with FAD
- Km [3]: 18.5 µM
